Measurements as given in patent US10004711B2, “Methods and compositions comprising 10-hydroxy-2-decenoic acid” (DSM IP ASSETS B.V., priority 2014, dated 2018).

Assays:
[1] = test system: Neurons from the brain's hippocampus; assay: Glutamate toxicity, cell death (propidium iodide); type: cell-based, rat; conditions: for Cell Death (% Control): glutamate 25 μM 24 h
Procedure: Neurons from the brain's hippocampus were derived from E17 pups and incubated for 7 days. The cells were pre-treated with QBA for 48 hours and subsequently challenged with glutamate (25 μM) for 24 hours. The cultures were then stained with propidium iodide, a marker of cell death, and with tetramethylrhodamine ethyl ester (TMRE), a marker for mitochondrial health. The fluorescence of each of these markers was then quantitated with a fluorimeter.

[2] = test system: Neurons from the brain's hippocampus; assay: In vitro hypoxia cell death (ethidium homodimer); type: cell-based, rat; conditions: for Cell Death (% Control): hypoxia (<0.3% O2) 48 h
Procedure: Neurons from the brain's hippocampus were derived from E17 pups and incubated for 7 days. The neurons were then pre-treated with QBA for 48 hours and subsequently exposed to a hypoxia (<0.3% O2) for 48 hours. The cultures were stained with calcein AM, a marker of live cells, and with ethidium homodimer, a marker for dead cells. The fluorescence of each of these markers was then quantitated with a fluorimeter.

[3] = test system: 19-20 month-old male rats; assay: Elevated plus-maze, rats fed QBA alone or QBA+DHA; type: in vivo, rat; conditions: DHA 0.00
Procedure: Rats were fed QBA and subjected to an elevated plus-maze. The elevated plus-maze was elevated ˜85 cm above the floor and consisted of two open and two closed arms of the same size (50×10 cm). The closed arms were surrounded by walls 40 cm high, and the arms were constructed of black acrylic slabs that radiated from a central platform (10×10 cm) to form a plus sign. Each rat was placed in the central platform facing one of the open arms, and its behavior was recorded during a 5-min testing period with video capture software. More time spent in the open arms is an indication of reduced anxiety-like state. Rats were tested at 18 months old (N=11-13 per group).
The dose-response characteristics of 10-Hydroxy-2-decenoic acid's (QBA's) in combination with DHA for potential brain health benefits during aging were assessed for mood in 19-20 month-old male rats (N=11-14 per group). Rats were fed QBA alone or QBA+DHA and subjected to an elevated plus-maze.

[4] = test system: RAW264.7 mouse macrophage cell line; assay: TNFα levels after LPS stimulation; type: cell-based; conditions: for TNFα (pg/mL)/Cell Numbers: 24 h
Procedure: Cultures of the RAW264.7 mouse macrophage cell line were pre-treated with 10-Hydroxy-2-decenoic acid (QBA) for 1 hour prior to stimulation with lipopolysaccharide (LPS, 100 ng/mL). After 24 hours of incubation, interleukin […] (IL-1β) and tumor necrosis factor-α (TNFα) levels were determined by Luminex technology and cell numbers were measured using Alamar Blue. Results are given as a ratio of cytokine concentration/cell number.

[5] = test system: Human peripheral blood mononuclear cells (PBMC); assay: Proliferation of PBMC after αCD3/CD28 stimulation; type: cell-based; conditions: for Cell Numbers: 72 h
Procedure: Human peripheral blood mononuclear cells (PBMC) were pre-treated with 10-Hydroxy-2-decenoic acid (QBA) for 1 hour prior to stimulation with αCD3/CD28. After 72 hours of incubation, cell number was assessed by Cell Titer Glow.

[6] = Body weight of aged male rats fed QBA and/or DHA (Example 8); type: in vivo, rat
Procedure: Aged male rats were fed 10-Hydroxy-2-decenoic acid (QBA) for approximately […] from 12-months to 20-months of age and the weight of rats was recorded.

[7] = test system: histone deacetylases; conditions: Spannhoff et al. 2011; cited from earlier work
[8] = QBA 10.00 μM pre-treatment 48 h
[9] = QBA 30.00 μM pre-treatment 48 h
[10] = QBA 100.00 μM pre-treatment 48 h

SMILES: O=C(O)C=CCCCCCCCO [QBA, 10-Hydroxy-2-decenoic acid]
- Cell Death (% Control) ([1]; QBA 0.10 μM pre-treatment 48 h): 92.52 % Control
- Cell Death (% Control) ([1]; QBA 0.30 μM pre-treatment 48 h): 90.43 % Control
- Cell Death (% Control) ([1]; QBA 1.00 μM pre-treatment 48 h): 88.78 % Control
- Cell Death (% Control) ([1]; QBA 3.00 μM pre-treatment 48 h): 94.07 % Control
- Cell Death (% Control) [1, 8]: 92.78 % Control
- Cell Death (% Control) [1, 9]: 90.69 % Control
- Cell Death (% Control) [1, 10]: 91.76 % Control
- cell death after glutamate toxicity ([1]; summary of Table 2): decreased cell death
- Cell Death (% Control) ([2]; QBA 0.10 μM pre-treatment 48 h): 86.26 % Control
- Cell Death (% Control) ([2]; QBA 0.30 μM pre-treatment 48 h): 83.62 % Control
- Cell Death (% Control) ([2]; QBA 1.00 μM pre-treatment 48 h): 83.00 % Control
- Cell Death (% Control) ([2]; QBA 3.00 μM pre-treatment 48 h): 82.20 % Control
- Cell Death (% Control) [2, 8]: 85.13 % Control
- Cell Death (% Control) [2, 9]: 82.29 % Control
- Cell Death (% Control) [2, 10]: 86.39 % Control
- cell death after low oxygen exposure ([2]; summary of Table 4): decreased cell death
- Time (s) in Open Arm ([3]; QBA 12 mg/kg/day): 31.7 s
- Time (s) in Open Arm ([3]; QBA 24 mg/kg/day): 31.7 s
- TNFα (pg/mL)/Cell Numbers ([4]; QBA 50 μM 1 h before LPS 100 ng/mL): 0.409 (pg/mL)/Cell Numbers
- TNFα (pg/mL)/Cell Numbers ([4]; QBA 100 μM 1 h before LPS 100 ng/mL): 0.456 (pg/mL)/Cell Numbers
- TNFα (pg/mL)/Cell Numbers ([4]; QBA 500 μM 1 h before LPS 100 ng/mL): 0.427 (pg/mL)/Cell Numbers
- TNFα (pg/mL)/Cell Numbers ([4]; QBA 1000 μM 1 h before LPS 100 ng/mL): 0.261 (pg/mL)/Cell Numbers
- TNFα (pg/mL)/Cell Numbers ([4]; QBA 2500 μM 1 h before LPS 100 ng/mL): 0.252 (pg/mL)/Cell Numbers
- TNFα (pg/mL)/Cell Numbers ([4]; QBA 5000 μM 1 h before LPS 100 ng/mL): 0.150 (pg/mL)/Cell Numbers
- production of TNFα in immune cells ([4]; summary of Table 10): reduced the production
- Cell Numbers ([5]; QBA 50 μM 1 h before αCD3/CD28): 517020
- Cell Numbers ([5]; QBA 100 μM 1 h before αCD3/CD28): 472678
- Cell Numbers ([5]; QBA 500 μM 1 h before αCD3/CD28): 442008
- Cell Numbers ([5]; QBA 1000 μM 1 h before αCD3/CD28): 344026
- Cell Numbers ([5]; QBA 2500 μM 1 h before αCD3/CD28): 104291
- Cell Numbers ([5]; QBA 5000 μM 1 h before αCD3/CD28): 1601
- concentrations that reduced the proliferation of human immune cells ([5]; summary of Table 11): greater than 500 μM
- Avg Wt ([6]; QBA 12 mg/kg/day, study day 0): 547.0 g
- Avg Wt ([6]; QBA 12 mg/kg/day, study day 4): 560.9 g
- Avg Wt ([6]; QBA 12 mg/kg/day, study day 11): 571.5 g
- Avg Wt ([6]; QBA 12 mg/kg/day, study day 18): 580.1 g
- Avg Wt ([6]; QBA 12 mg/kg/day, study day 25): 584.5 g
- Avg Wt ([6]; QBA 12 mg/kg/day, study day 32): 590.8 g
- Avg Wt ([6]; QBA 12 mg/kg/day, study day 39): 591.7 g
- Avg Wt ([6]; QBA 12 mg/kg/day, study day 46): 594.3 g
- Avg Wt ([6]; QBA 12 mg/kg/day, study day 53): 595.4 g
- Avg Wt ([6]; QBA 12 mg/kg/day, study day 60): 598.7 g
- Avg Wt ([6]; QBA 12 mg/kg/day, study day 67): 597.8 g
- Avg Wt ([6]; QBA 12 mg/kg/day, study day 74): 603.7 g
- Avg Wt ([6]; QBA 12 mg/kg/day, study day 81): 607.3 g
- Avg Wt ([6]; QBA 12 mg/kg/day, study day 88): 608.5 g
- Avg Wt ([6]; QBA 12 mg/kg/day, study day 95): 612.8 g
- Avg Wt ([6]; QBA 12 mg/kg/day, study day 102): 614.5 g
- Avg Wt ([6]; QBA 12 mg/kg/day, study day 109): 617.0 g
- Avg Wt ([6]; QBA 12 mg/kg/day, study day 116): 617.2 g
- Avg Wt ([6]; QBA 12 mg/kg/day, study day 123): 617.3 g
- Avg Wt ([6]; QBA 12 mg/kg/day, study day 130): 616.9 g
- Avg Wt ([6]; QBA 12 mg/kg/day, study day 137): 621.5 g
- Avg Wt ([6]; QBA 12 mg/kg/day, study day 144): 619.1 g
- Avg Wt ([6]; QBA 12 mg/kg/day, study day 151): 620.5 g
- Avg Wt ([6]; QBA 24 mg/kg/day, study day 0): 551.5 g
- Avg Wt ([6]; QBA 24 mg/kg/day, study day 4): 566.8 g
- Avg Wt ([6]; QBA 24 mg/kg/day, study day 11): 573.4 g
- Avg Wt ([6]; QBA 24 mg/kg/day, study day 18): 585.7 g
- Avg Wt ([6]; QBA 24 mg/kg/day, study day 25): 593.1 g
- Avg Wt ([6]; QBA 24 mg/kg/day, study day 32): 596.0 g
- Avg Wt ([6]; QBA 24 mg/kg/day, study day 39): 599.7 g
- Avg Wt ([6]; QBA 24 mg/kg/day, study day 46): 601.5 g
- Avg Wt ([6]; QBA 24 mg/kg/day, study day 53): 601.8 g
- Avg Wt ([6]; QBA 24 mg/kg/day, study day 60): 606.5 g
- Avg Wt ([6]; QBA 24 mg/kg/day, study day 67): 607.5 g
- Avg Wt ([6]; QBA 24 mg/kg/day, study day 74): 611.8 g
- Avg Wt ([6]; QBA 24 mg/kg/day, study day 81): 614.5 g
- Avg Wt ([6]; QBA 24 mg/kg/day, study day 88): 617.8 g
- Avg Wt ([6]; QBA 24 mg/kg/day, study day 95): 620.2 g
- Avg Wt ([6]; QBA 24 mg/kg/day, study day 102): 623.9 g
- Avg Wt ([6]; QBA 24 mg/kg/day, study day 109): 627.4 g
- Avg Wt ([6]; QBA 24 mg/kg/day, study day 116): 630.3 g
- Avg Wt ([6]; QBA 24 mg/kg/day, study day 123): 629.2 g
- Avg Wt ([6]; QBA 24 mg/kg/day, study day 130): 630.3 g
- Avg Wt ([6]; QBA 24 mg/kg/day, study day 137): 633.5 g
- Avg Wt ([6]; QBA 24 mg/kg/day, study day 144): 642.1 g
- Avg Wt ([6]; QBA 24 mg/kg/day, study day 151): 638.6 g
- body weight versus control, repeated measures ANOVA ([6]; all doses versus 0 mg/kg/day QBA or 0 mg/kg/day QBA+0.07% DHA): small but significant increase
- body weight maintenance in aging male rats ([6]; summary of Table 14): helped to maintain healthy body weight
- histone deacetylase inhibition [7]: inhibits histone deacetylases
